Test results published in patent US10202343B2, “MIF modulators” (YALE UNIVERSITY, priority 2008, dated 2019).
Like-named read-outs stand apart in the source and are kept apart here. Each block holds one compound with its values, some of them ahead of it.

Tests used:
[1] = biological target: T1, Human MIF (MIF tautomerase activity) (Homo sapiens, UniProt P14174); assay: HPP tautomerase assay; assay type: biochemical; conditions: for IC50: read-out: HPP IC50
T1 construct: made in house
T1 sequence (P14174 2-115 limits assumed): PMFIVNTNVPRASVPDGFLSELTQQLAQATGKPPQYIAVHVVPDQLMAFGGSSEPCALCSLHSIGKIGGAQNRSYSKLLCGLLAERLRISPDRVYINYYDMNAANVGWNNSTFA

[2] = biological target: T2, MIF-CD74 Binding (biotin-labeled recombinant human MIF, recombinant human MIF receptor CD74 ectodomain) (Homo sapiens, UniProt P14174); assay: MIF-CD74 binding (capture) assay; conditions: for CD74 % MaxInhib: number before @; for Capture IC50 / Capture % Max. Inhib.: Table 3
T2 sequence (P14174 2-115 limits assumed): T1 sequence (P14174 2-115 limits assumed)

[3] = Table 2, read-out: MIF-CD74 IC50

IC50 ([1]; Table 1): 3.4 µM
concentration of CD74 % MaxInhib (number after @) ([2]; Table 4): 1.87 µM
CD74 % MaxInhib ([2]; Table 4): 25%
Compound: Cc1ccc2c(c1)oc(=O)n2Cc1ccccc1 [Compound 2, 3-benzyl-6-methyl-3H-benzooxazol-2-one]

concentration of HPP Max Inhib (number after @) ([1]; Table 4): > 500 µM
HPP Max Inhib ([1]; Table 4, number before @): 41%
concentration of CD74 % MaxInhib (number after @) ([2]; Table 4): 1.87 µM
Compound: COc1cccc(Cn2c(=O)oc3ccc(OC)cc32)c1 [Compound 3, 5-methoxy-3-(3-methoxy-benzyl)-3H-benzooxazol-2-one]

HPP Max Inhib ([1]; Table 1): 44%
concentration of HPP Max Inhib (number after @) ([1]; Table 4): 200 µM
concentration of CD74 % MaxInhib (number after @) ([2]; Table 4): 0.039 µM
CD74 % MaxInhib ([2]; Table 4): 27%
Compound: COc1cccc(Cn2c(=O)oc3ccc(CO)cc32)c1 [Compound 4, 5-hydroxymethyl-3-(3-methoxy-benzyl)-3H-benzooxazol-2-one]

IC50 ([1]; Table 1): 2.9 µM
concentration of CD74 % MaxInhib (number after @) ([2]; Table 4): 1.87 µM
CD74 % MaxInhib ([2]; Table 4): 42%
Compound: COc1cccc(Cn2c(=O)oc3ccc(C)cc32)c1 [Compound 5]

concentration of CD74 % MaxInhib (number after @) ([2]; Table 4): 0.039 µM
Compound: COc1ccccc1Cn1c(=O)oc2ccc(F)cc21 [Compound 10]

HPP Max Inhib ([1]; Table 1): 28%
concentration of HPP Max Inhib (number after @) ([1]; Table 4): 5 µM
concentration of CD74 % MaxInhib (number after @) ([2]; Table 4): 0.039 µM
CD74 % MaxInhib ([2]; Table 4): 22%
Compound: O=c1oc2cc(O)ccc2n1Cc1ccccc1 [Compound 14]

concentration of HPP Max Inhib (number after 'at') ([1]; Table 5): 5 µM
concentration of CD74 % MaxInhib (number after @) ([2]; Table 5): 0.039 µM
IC50 ([2]; Table 5, read-out: CD74 IC50): > 1000 µM
Compound: c1ccc(Cn2c(-c3cscn3)nc3ccccc32)cc1 [Compound 17, 4-(1-benzyl-1H-benzo[d]imidazol-2-yl)thiazole]

concentration of CD74 % MaxInhib (number after @) ([2]; Table 5): 0.078 µM
Compound: N#Cc1nc2ccccc2n1Cc1ccccc1 [Compound 18, 1-Benzyl-1H-benzoimidazole-2-carbonitrile]

HPP Max. Inhib. ([1]; Table 2): 38%
concentration of CD74 % MaxInhib (number after @) ([2]; Table 5): 1.87 µM
CD74 % MaxInhib ([2]; Table 5): 40%
Compound: c1ccc(Cn2c(Cc3ccccn3)nc3ccccc32)cc1 [Compound 19]

concentration of CD74 % MaxInhib (number after @) ([2]; Table 13): 0.058 µM
Compound: O=C(c1cc2ccccc2o1)c1cc2ccccc2o1 [Compound 20, bisbenzofuran-2-yl methanone]

IC50 ([1]; Table 5): 3 µM
IC50 [2, 3]: 4 µM
IC50 ([2]; Table 5, read-out: CD74 IC50): 4 µM
IC50 ([2]; Table 14, read-out: CD74 IC50): 4 µM
Compound: O=C(c1cc2ccccc2o1)N1CCc2ccccc21 [Compound 21]

IC50 ([1]; Table 15): 730 µM
IC50 [2, 3]: 2.5 µM
IC50 ([2]; Table 5, read-out: CD74 IC50): 2.5 µM
IC50 ([2]; Table 15, read-out: CD74 IC50): 2.5 µM
Compound: CC(=O)Oc1ccc2nc(-c3cc4ccccc4o3)oc(=O)c2c1 [Compound 22]

IC50 [2, 3]: 1500 µM
IC50 ([2]; Table 5, read-out: CD74 IC50): 1500 µM
IC50 ([2]; Table 16, read-out: CD74 IC50): 1500 µM
Compound: O=C(O)COc1ccc2occ(C(=O)c3ccccc3)c2c1 [Compound 23]

IC50 [2, 3]: 5000 µM
IC50 ([2]; Table 5, read-out: CD74 IC50): 5000 µM
IC50 ([2]; Table 22, read-out: CD74 IC50): 5000 µM
Compound: c1ccc(COc2ccc3cc(-c4cc[nH]c4)[nH]c3c2)cc1 [Compound 24]

Compound: O=c1c2ccc(F)cc2sn1-c1ccc(Cl)cc1 [Compound 25]
IC50 ([1]; Table 2): 4.2 µM
activity in the capture assay [2]: agonist behavior
MIF-CD74 IC50 ([2]; Table 2): agonist
CD74 IC50 ([2]; Table 5): agonist

Compound: O=c1c2ccc(F)cc2sn1-c1ccc(Cl)cc1 [Compound 26]
IC50 ([1]; Table 3): 4.2 µM
IC50 ([1]; Table 6, data cell c7): 4.2 µM
Capture IC50 [2]: agonist
CD74 IC50 ([2]; Table 6, data cell c9): agonist

IC50 ([1]; Table 3): 6.2 µM
Compound: COc1ccc(-n2sc3cc(F)ccc3c2=O)cc1 [Compound 27]

Compound: COc1cccc(-n2sc3cc(F)ccc3c2=O)c1 [Compound 28]
IC50 ([1]; Table 3): 25 µM
IC50 ([1]; Table 6, data cell c7): 25 µM

Compound: O=c1c2ccc(F)cc2sn1-c1cccc(CO)c1 [Compound 29]
Capture % Max. Inhib. [2]: 8%
CD74 % MaxInhib ([2]; Table 6, data cell c8): 8%

Compound: O=c1c2cc(F)ccc2sn1-c1ccc(Cl)cc1 [Compound 30]
Capture % Max. Inhib. [2]: 7%
CD74 % MaxInhib ([2]; Table 6, data cell c8): 7%

Compound: COc1ccccc1-n1sc2ccc(Cl)cc2c1=O [Compound 31]
IC50 ([1]; Table 3): 6.6 µM
IC50 ([1]; Table 6, data cell c7): 6.6 µM
Capture % Max. Inhib. [2]: 7%
CD74 % MaxInhib ([2]; Table 6, data cell c8): 7%

Compound: O=c1c2cc(F)ccc2sn1-c1cccc(O)c1 [Compound 32]
IC50 ([1]; Table 3): 5.9 µM
IC50 ([1]; Table 6, data cell c7): 5.9 µM
Capture % Max. Inhib. [2]: 13%
CD74 % MaxInhib ([2]; Table 6, data cell c8): 13%

Compound: CC(=O)OCc1cccc(-n2sc3cc(F)ccc3c2=O)c1 [Compound 33]
IC50 ([1]; Table 3): 2.3 µM
IC50 ([1]; Table 6, data cell c7): 2.3 µM
Capture % Max. Inhib. [2]: 12%
CD74 % MaxInhib ([2]; Table 6, data cell c8): 12%

Compound: O=c1c2cc([N+](=O)[O-])ccc2sn1-c1ccc(Cl)cc1 [Compound 34]
IC50 ([1]; Table 3): 6.2 µM
IC50 ([1]; Table 6, data cell c7): 6.2 µM
Capture % Max. Inhib. [2]: 11%
CD74 % MaxInhib ([2]; Table 6, data cell c8): 11%

Compound: O=c1c2cc(C(F)(F)F)ccc2sn1-c1ccc(Cl)cc1 [Compound 35]
Capture % Max. Inhib. [2]: 12%
CD74 % MaxInhib ([2]; Table 6, data cell c8): 12%

Compound: O=c1c2ccc(Br)cc2sn1-c1ccc(Cl)cc1 [Compound 36]
IC50 ([1]; Table 3): 11 µM
IC50 ([1]; Table 6, data cell c7): 11 µM
Capture % Max. Inhib. [2]: 10%
CD74 % MaxInhib ([2]; Table 6, data cell c8): 10%

Compound: COc1cccc(-n2sc3ccc(F)cc3c2=O)c1 [Compound 38]
IC50 ([1]; Table 3): 8 µM
IC50 ([1]; Table 6, data cell c7, listed as MIF-113): 8 µM
Capture IC50 [2]: agonist
CD74 IC50 ([2]; Table 6, data cell c9): agonist

Compound: O=c1c2cc(Br)ccc2sn1-c1ccc(Cl)cc1 [Compound 39]
IC50 ([1]; Table 3): 7.9 µM
IC50 ([1]; Table 6, data cell c7): 7.9 µM

Compound: N#Cc1ccc2sn(-c3ccc(Cl)cc3)c(=O)c2c1 [Compound 40]
IC50 ([1]; Table 3): 19 µM
IC50 ([1]; Table 6, data cell c7): 19 µM
Capture IC50 [2]: agonist
CD74 IC50 ([2]; Table 6, data cell c9): agonist
